Among the data in BindingDB's records for doi:10.1016/j.jmb.2008.04.054 (Gilead Sciences, 2008) are IC50 values, retold here.

The target in the assay is T1, Gag-Pol polyprotein [1148-1435] (Human immunodeficiency virus 1, UniProt P04585).
T1 construct: 1148-1435
Nature of the assay: Integrase 3-End Joining Assay. As to conditions: pH 7.3; 22 °C. The procedure:
In the 3-end joining assay, the biotinylated donor DNA was bound to streptavidin-coated plates, and integrase was added to each well to allow processing of the donor DNA. Serially diluted compounds and DIG-tagged target DNA were then added to each well, and 3-end joining reaction was allowed to proceed for 30 min. Signal was detected using horseradishperoxidase-conjugated anti-Digoxin antibody through chemiluminescence measurement.
Take `COc1c2c(c(O)c3ncccc13)C(=O)N(Cc1ccc(F)cc1)C2`: 0.06 µM corresponded to half-maximal inhibition (IC50).
In the case of `O=C(O)C(=O)CC(=O)c1cccc(Cc2ccccc2)c1` [(2Z)-4-(3-benzylphenyl)-2-hydroxy-4-oxobut-2-enoic acid] it was 0.026 µM.
On to `O=C(NCc1ccc(F)cc1)c1nc(N2CCCCS2(=O)=O)c2cccnc2c1O` [5-(1,1-dioxo-1,2-thiazinan-2-yl)-N-[(4-fluorophenyl)methyl]-8-hydroxy-1,6-naphthyridine-7-carboxamide], for which the IC50 (commonly the concentration that inhibits the measured activity by half) came out at 0.044 µM.
Molecule `COc1c2c(cc3ncccc13)C(=O)N(Cc1ccc(F)cc1)C2` [7-[(4-fluorophenyl)methyl]-5-methoxy-6H,7H,8H-pyrrolo[3,4-g]quinolin-8-one] returned an IC50 of 24 µM.
In the case of `COc1c2c(c(OC)c3ncccc13)C(=O)N(Cc1ccc(F)cc1)C2` [7-[(4-fluorophenyl)methyl]-5,9-dimethoxy-6H,7H,8H-pyrrolo[3,4-g]quinolin-8-one] it was greater than 1000 µM.
Turning to `CC[C@H](CO)n1cc(C(=O)O)c(=O)c2cc(Cc3cccc(Cl)c3F)ccc21` [6-[(3-chloro-2-fluorophenyl)methyl]-1-[(2R)-1-hydroxybutan-2-yl]-4-oxo-1,4-dihydroquinoline-3-carboxylic acid], the midpoint of inhibition, the IC50, lay at 0.042 µM.
